The term inhibition denotes how much of the control response was suppressed. What is called pKd is −log10 of the Kd, conventionally taken in molar units. Usually pEC50 stands for −log10 of the EC50, conventionally taken in molar units.

Experimental findings from ChEMBL document CHEMBL6177981, “Bardoxolone Derivatives as Novel Pseudo-Natural Necroptosis Inhibitors by Destabilizing HSP90 Client Proteins” (J Med Chem, 2025) are described below.

pEC50, pKd: −log10 of the molar value. Active and inactive are the calls of the source. No cut-off for these calls is given here.

Series [1] in a line: Inhibition of TSZ-mediated necrosome formation in human HT-29 cells at 10 uM preincubated with compound followed by Z-VAD-FMK, SM164 and TNFalpha stimulation and measured after 6 hrs by co-immunoprecipitation based Western blot analysis relative to control. It counts as functional. On the technique in general: A western blot detects proteins with antibodies after separation by electrophoresis.

Series [2] concerns HT-29. The series is described as follows: Downregulation of RIPK3 protein level in human HT-29 cells at 3 to 6 uM incubated for 9 hrs by Western blot analysis. It is filed as functional, cell-based. The conditions noted are these: dose 3-6 µM.
Series [3] concerns HT-29. The series is described as follows: Effect on RIPK3 protein level in human HT-29 cell precipitate at 6 uM measured after 9 hrs by Western blot analysis. It counts as functional, cell-based.
Series [4] in a line: Acute toxicity in male C57BL/6J mouse assessed as inflammatory cell infiltration in kidney at 2 g/Kg, IG measured after 72 hrs by H and E staining based analysis. The conditions noted are these: in vivo, po, 2000 mg/kg. It is filed as tissue-based.
Series [5] relates to HT-29. Briefly: Anti-apoptotic activity in TC-induced human HT-29 cells assessed as increase in cell viability at 1.25 to 20 uM preincubated with compound followed by TNF-alpha and cycloheximide addition and measured after 24 hrs by CellTiter-Lumi luminescent cell viability assay. It counts as functional, cell-based. The conditions noted are these: dose 1.25-20 µM.
The nature of series [6]: Acute toxicity in male C57BL/6J mouse assessed as hemorrhage in liver at 2 g/Kg, IG measured after 72 hrs by H and E staining based analysis. It is filed as tissue-based. As to conditions: in vivo, po, 2000 mg/kg.
The subject of series [7] is Mus musculus. The series is described as follows: Anti-necroptotic activity in TNFalpha/Z-VAD-FMK induced SIRS male C57BL/6J mouse model assessed as reduction in IL-1beta in serum pre-administered orally with compound via gavage for 2 hrs followed by […] of Z-VAD-FMK stimulation for 15 mins with subsequent TNF-alpha stimulation for 1 hrs and re-current […] of Z-VAD-FMK stimulation and measured after 8 hrs post SIRS induction by ELISA. It is filed as functional, organism-based. The conditions noted are these: dose 2.5-10 mg/kg, route po, time 10.0 hrs. A general note: ELISA stands for enzyme-linked immunosorbent assay.

Series [8] deals with HT-29. Briefly: Downregulation of RIPK1 protein level in human HT-29 cells at 3 to 6 uM incubated for 9 hrs by Western blot analysis. It is filed as functional, cell-based. As to conditions: dose 3-6 µM.
Series [9] deals with HT-29. Briefly: Downregulation of MLKL protein level in human HT-29 cells at 6 uM preincubated with NH4Cl for 2 hrs followed by compound addition and measured after 9 hrs by Western blot analysis. It is filed as functional, cell-based.
In series [10] the test system is HT-29. The series is described as follows: Upregulation of HSP70 protein level in TSZ-induced human HT-29 cells at 10 uM preincubated with compound followed by Z-VAD-FMK, SM164 and TNFalpha stimulation and measured after 6 hrs by Western blot analysis. It counts as functional, cell-based.
Series [11] relates to HT-29. The series is described as follows: Anti-necroptotic activity in TSZ-induced human HT-29 cells assessed as cell survival at 10 uM measured after 12 hrs by Live-cell super-resolution panoramic microscopic analysis (reference value: 8 hrs). It counts as functional.
Series [12] concerns Mus musculus. The series is described as follows: Anti-necroptotic activity in TNFalpha/Z-VAD-FMK induced SIRS male C57BL/6J mouse model assessed as protection from hypothermia at 2.5 to 10 mg/kg, po pre-administered with compound via gavage for 2 hrs followed by […] of Z-VAD-FMK stimulation for 15 mins with subsequent TNF-alpha stimulation for 1 hrs and re-current […] of Z-VAD-FMK stimulation and measured after 8 hrs post SIRS induction. It is filed as functional, organism-based. The conditions noted are these: dose 2.5-10 mg/kg, time 10.0 hrs.

Series [13] deals with Mus musculus. The series is described as follows: Anti-necroptotic activity in TNFalpha/Z-VAD-FMK induced SIRS male C57BL/6J mouse model assessed as protection from death at 2.5 to 10 mg/kg, po pre-administered with compound via gavage for 2 hrs followed by […] of Z-VAD-FMK stimulation for 15 mins with subsequent TNF-alpha stimulation for 1 hrs and re-current […] of Z-VAD-FMK stimulation and measured after 8 hrs post SIRS induction. It is filed as functional, organism-based. The conditions noted are these: dose 2.5-10 mg/kg, time 10.0 hrs.

Series [14] deals with Mus musculus. The series is described as follows: Anti-necroptotic activity in TNFalpha/Z-VAD-FMK induced SIRS male C57BL/6J mouse model assessed as reduction in IL6 in heart at 5 to 10 mg/kg, po pre-administered with compound via gavage for 2 hrs followed by […] of Z-VAD-FMK stimulation for 15 mins with subsequent TNF-alpha stimulation for 1 hrs and re-current […] of Z-VAD-FMK stimulation and measured after 8 hrs post SIRS induction by ELISA. It counts as functional, organism-based. The conditions noted are these: dose 5-10 mg/kg, time 10.0 hrs.

The test system of series [15] is Mus musculus. The series is described as follows: Anti-necroptotic activity in TNFalpha/Z-VAD-FMK induced SIRS male C57BL/6J mouse model assessed as reduction in IL6 in serum pre-administered orally with compound via gavage for 2 hrs followed by […] of Z-VAD-FMK stimulation for 15 mins with subsequent TNF-alpha stimulation for 1 hrs and re-current […] of Z-VAD-FMK stimulation and measured after 8 hrs post SIRS induction by ELISA. It is filed as functional, organism-based. The conditions noted are these: dose 2.5-10 mg/kg, route po, time 10.0 hrs.

Series [16] deals with HT-29. Briefly: Upregulation of HSP70 protein level in TSZ-induced human HT-29 cells at 0.625 to 10 uM preincubated with compound followed by Z-VAD-FMK, SM164 and TNFalpha stimulation and measured after 6 hrs by Western blot analysis. It counts as functional, cell-based. The conditions noted are these: dose 0.625-10 µM.
A further series relates to HeLa. The series is described as follows: Inhibition of RIPK1 protein expression in RIPK3-deficient human HeLa cells at 6 uM preincubated with NH4Cl for 2 hrs followed by compound addition and measured after 9 hrs by Western blot analysis. It counts as functional, cell-based.
Series [17] has as its target Heat shock protein HSP 90-alpha (Homo sapiens, UniProt P07900). Briefly: Binding affinity to N-terminal 6His/SUMO-tagged recombinant human HS90AA1 assessed as dissociation constant incubated for 30 mins by MST analysis.
Series [18] relates to HT-29. Briefly: Anti-necroptotic activity in TSZ-induced human HT-29 cells assessed as increase in cell viability preincubated with Z-VAD-FMK and SM164 for 30 mins followed by TNFalpha stimulation for 12 hrs and measured after compound addition by CellTiter-Lumi luminescent cell viability assay. It is filed as functional, cell-based.

Take `Cn1ccc(-c2ccc(NC(=O)[C@]34CCC(C)(C)C[C@H]3[C@H]3C(=O)C=C5[C@@]6(C)C=C(C#N)C(=O)C(C)(C)[C@@H]6CC[C@@]5(C)[C@]3(C)CC4)cc2)n1`: the inhibition at 10 µM in [1] is 100%. Also, the Activity result with HT-29 [2] is “Active; Significant Effect Observed”; in [4], “Non-toxic”; in [6], “Non-toxic”; with Mus musculus [7] it was “Dose-dependent-effect”; with HT-29 [8], “Active; Significant Effect Observed”; in the series with Mus musculus [15], “Dose-dependent-effect”. Further, the outcome in the series with HT-29 [3], in the series with HT-29 [5], in the series with HT-29 [10] and in the series with HT-29 [16] was inactive. Besides, the outcome in the series on HT-29 [9], in the series with Mus musculus [12], in the series with Mus musculus [13] and in the series on Mus musculus [14] was Active. Besides, the Survival with HT-29 [11] was 9 h. The inhibition result in the series with HeLa is “Active”. Further, the negative-log Kd (pKd) in series [17] is 6.73. The pEC50 in the series on HT-29 [18] was 5.86.
